This is an account of results in paper PMC4659708 (Nature, 2015).

For assay [1], the target named is T1, α1 glycine receptor (GlyREM) (Danio rerio, UniProt O93430, DEL334-400/INS333AGT).
T1 sequence (O93430 with tags, fused parts or gaps INS333AGT/DEL334-400): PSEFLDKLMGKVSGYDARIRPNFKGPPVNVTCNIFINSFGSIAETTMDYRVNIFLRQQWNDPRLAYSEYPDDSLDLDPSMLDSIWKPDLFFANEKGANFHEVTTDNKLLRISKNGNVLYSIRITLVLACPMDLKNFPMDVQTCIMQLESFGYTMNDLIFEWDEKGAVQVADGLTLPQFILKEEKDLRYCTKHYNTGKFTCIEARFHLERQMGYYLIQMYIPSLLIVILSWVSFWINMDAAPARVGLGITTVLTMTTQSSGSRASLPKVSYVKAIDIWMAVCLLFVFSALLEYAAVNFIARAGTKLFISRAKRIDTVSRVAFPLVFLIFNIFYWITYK
Nature of the assay: TEVC in Xenopus oocytes, block of glycine current at […]. In kind it is cell-based. The following applies: read-out: % inhibition at 1 mM.

For assay [2], the target named is T1, α1 glycine receptor (GlyREM). Nature of the assay: TEVC in Xenopus oocytes, agonist activation. Format: cell-based.

As a reminder, the inhibition is how much of the control response was suppressed. For the compound `C=C(C)[C@@H]1[C@H]2OC(=O)[C@@H]1[C@]1(O)C[C@H]3O[C@]34C(=O)O[C@H]2[C@]14C` [ptx, picrotoxinin], the inhibition at 1000 µM in assay [1] was about 80%.
The EC50 is the concentration needed to bring the measured effect to its halfway point. Higher therefore signals a less potent agent. Turning to `NCC(=O)O` [gly, glycine], in assay [2], the concentration for a half-maximal effect (EC50) was 260 µM.
